Here are results for 32 compounds from publication PMC6032016, “Synthesis, biological evaluation, and molecular modelling studies of potent human neutrophil elastase (HNE) inhibitors” (Journal of Enzyme Inhibition and Medicinal Chemistry, 2018).

The target of data set [1] is T1, HNE (human neutrophil elastase) (Homo sapiens, UniProt P08246).
T1 construct: purchased Calbiochem
T1 sequence (P08246 30-267): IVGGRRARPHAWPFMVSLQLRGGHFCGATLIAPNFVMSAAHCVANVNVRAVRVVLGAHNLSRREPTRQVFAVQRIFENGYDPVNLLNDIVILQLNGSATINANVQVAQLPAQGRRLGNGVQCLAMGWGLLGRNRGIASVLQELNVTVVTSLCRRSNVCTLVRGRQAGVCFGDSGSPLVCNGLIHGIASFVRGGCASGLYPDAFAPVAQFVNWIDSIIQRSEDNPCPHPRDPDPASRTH
Briefly: HNE inhibition assay (fluorogenic substrate cleavage). In kind it is biochemical. The settings on record: for IC50: mean ± SD of three independent experiments, NA: no inhibitory activity at the highest concentration tested (50 µM); for HNE inhibitory activity, result in words: highest concentration tested 50 µM.
Method: Compounds were dissolved in 100% DMSO at 5 mM stock concentrations. […] The HNE inhibition assay was performed in black flat-bottom 96-well microtiter plates. Briefly, a buffer solution containing 200 mM Tris–HCl, pH 7.5, 0.01% bovine serum albumin, and 0.05% Tween-20 and 20 mU/mL of HNE (Calbiochem) was added to wells containing different concentrations of each compound. The reaction was initiated by addition of 25 µM elastase substrate (N-methylsuccinyl-Ala-Ala-Pro-Val-7-amino-4-methylcoumarin, Calbiochem) in a final reaction volume of 100 µl/well. Kinetic measurements were obtained every 30 s for 10 min at 25 °C using a Fluoroskan Ascent FL fluorescence microplate reader (Thermo Electron, MA) with excitation and emission wavelengths set at 355 and 460 nm, respectively. For all compounds tested, the concentration of inhibitor that caused 50% inhibition of the enzymatic reaction (IC50) was calculated by plotting % inhibition versus logarithm of inhibitor concentration (at least six points). The data are presented as the mean values of at least three independent experiments with relative standard deviations of <15%.

Data set [2] can be described thus: Analysis of compound stability: spontaneous hydrolysis in aqueous buffer. To be noted: 25 °C, 0.05 M phosphate buffer, pH 7.3; read-out: t1/2 for spontaneous hydrolysis (converted). It counts as physicochemical. The procedure: Spontaneous hydrolysis of selected derivatives was evaluated at 25 °C in 0.05 M phosphate buffer, pH 7.3. Kinetics of hydrolysis were monitored by measuring changes in the absorbance spectra over time using a SpectraMax Plus microplate spectrophotometer (Molecular Devices, Sunnyvale, CA). Absorbance (At) at the characteristic absorption maxima of each compound was measured at the indicated times until no further absorbance decreases occurred (A∞)[52]. Using these measurements, we created semilogarithmic plots of log(At–A∞) versus time, and k′ values were determined from the slopes of these plots. Half-conversion times were calculated using t1/2 = 0.693/k′, as described previously[36]^,[37].

A further data set has as its target T2, HNE (Homo sapiens, UniProt P08246).
T2 construct: purchased Calbiochem
T2 sequence (P08246 30-267): T1 sequence (P08246 30-267)
Briefly: Reversibility of HNE inhibition over extended periods of time. It counts as biochemical. To be noted: 8 µM compound. The procedure:
The inhibition was maximal for up to 60 min with compound 7e and >120 min for the other tested compounds (4a, 4b, and 7a). However, inhibition by the compounds was eventually reversed, and full recovery of HNE activity was observed by 4 h after treatment with 8 µM of the compound (e.g. see Figure 6).
Figure 6. […] HNE was incubated with the indicated compounds (8 µM), and kinetic curves monitoring substrate cleavage catalysed by HNE over time are shown. Representative curves are from two independent experiments.

“And” between values parts separate entries of the source, which are not always exact repeats. Identical values can stand only once.

As to `Cc1c(-c2ccccc2)c(=O)on1C(=O)c1cccc(S(C)(=O)=O)c1` [Compound 4f, 3-Methyl-2-(3-(methylsulfonyl)benzoyl)-4-phenylisoxazol-5(2H)-one], the melting point (as a rule, the temperature, or range, at which the solid turns liquid) lay in the range of 185 to 186 °C. Besides, the IC50 (usually the concentration needed to halve the response being measured) in data set [1] turned out to be 29600 ± 7200 nM.
With `Cc1c(-c2ccccc2)c(=O)on1S(=O)(=O)c1ccc(O)cc1` [Compound 3a, 2-((4-Hydroxyphenyl)sulfonyl)-3-methyl-4-phenylisoxazol-5(2H)-one], the melting point fell in the range of 50 to 51 °C. Also, in data set [1], the “HNE inhibitory activity, result in words” value was “inactivity”.
`Cc1cccc(C(=O)n2oc(=O)c(-c3ccc([N+](=O)[O-])cc3)c2C)c1` [Compound 7c, 3-Methyl-2-(3-methylbenzoyl)-4-(4-nitrophenyl)isoxazol-5(2H)-one] yielded a melting point of 152 to 154 °C. In data set [1], this compound came in with an IC50 of 210 ± 40 nM.
`Cc1c(-c2ccccc2)c(=O)on1C(=O)c1ccc(NC(=O)C(C)(C)C)cc1` [Compound 4i, N-(4-(3-methyl-5-oxo-4-phenyl-2,5-dihydroisoxazole-2-carbonyl)phenyl)pivalamide] gave a melting point of 132 to 134 °C. In data set [1], this compound gave an IC50 of 8500 ± 2100 nM.
The compound `Cc1cccc(C(=O)n2oc(=O)c(-c3ccccc3)c2C)c1` [Compound 4a, 3-Methyl-2-(3-methylbenzoyl)-4-phenylisoxazol-5(2H)-one] gave a melting point of 85 to 88 °C. For the same compound, inhibition in data set [1] was half-maximal at 77 ± 27 nM (IC50). Moreover, in data set [2], the half-life was 4.1 h. Further, the “time for which HNE inhibition was maximal” value at HNE is greater than 120 min.
`O=C(C1CC1)n1oc(=O)c(-c2ccccc2)c1-c1ccccc1` [Compound 4n, 2-(Cyclopropanecarbonyl)-3,4-diphenylisoxazol-5(2H)-one] showed a melting point of 100 to 103 °C. This compound also gave an IC50 in data set [1] of 17200 ± 2300 nM.
The compound `Cc1ccc(-c2c(C)n(C(=O)c3cccc(C)c3)oc2=O)cc1` [Compound 7a, 3-Methyl-2-(3-methylbenzoyl)-4-(p-tolyl)isoxazol-5(2H)-one] yielded an IC50 in data set [1] of 20 ± 9 nM. The half-life in data set [2] was 7.7 h. For the same compound, the “time for which HNE inhibition was maximal” value at HNE is recorded as greater than 120 min.
On to `Cc1c(-c2ccccc2)n(C(=O)C2CC2)oc1=O` [Compound 4p, 2-(Cyclopropanecarbonyl)-4-methyl-3-phenylisoxazol-5(2H)-one], for which the IC50 in data set [1] turned out to be 1100 ± 140 nM.
For the compound `Cc1c(-c2ccccc2)c(=O)on1S(=O)(=O)c1ccc(OC(=O)C(C)(C)C)cc1` [Compound 3b, 4-((3-Methyl-5-oxo-4-phenylisoxazol-2(5H)-yl)sulfonyl)phenyl pivalate], in data set [1], the IC50 was 59 ± 20 nM.
With `CCC(=O)n1oc(=O)c2ccccc21` [Compound 10a, 1-Propionylbenzo[c]isoxazol-3(1H)-one], the half-maximal inhibitory concentration (IC50) in data set [1] was 25100 ± 3600 nM.
In turn, `Cc1ccc(C(=O)n2oc(=O)c(-c3ccccc3)c2C)cc1` [Compound 4c, 3-Methyl-2-(4-methylbenzoyl)-4-phenylisoxazol-5(2H)-one] came in with a melting point of 134 to 136 °C. In data set [1], this compound had an IC50 of 230 ± 34 nM.
`Cc1cccc(C(=O)n2oc(=O)c(C)c2-c2ccccc2)c1` [Compound 4o, 4-Methyl-2-(3-methylbenzoyl)-3-phenylisoxazol-5(2H)-one] gave an IC50 in data set [1] of 13600 ± 2400 nM.
For `Cc1c(-c2ccccc2)c(=O)on1C(=O)c1ccc(C#N)cc1` [Compound 4h, 4-(3-Methyl-5-oxo-4-phenyl-2,5-dihydroisoxazole-2-carbonyl)benzonitrile], the melting point was 178 to 180 °C (dec.). In data set [1], this compound registered a half-inhibitory concentration (IC50) of 11400 ± 1900 nM.
For `Cc1c(-c2ccccc2)c(=O)on1C(=O)c1cccc(C(F)(F)F)c1` [Compound 4e, 3-Methyl-4-phenyl-2-(3-(trifluoromethyl)benzoyl)isoxazol-5(2H)-one], in that order: 96 to 97 °C and 200 ± 27 nM.
Take `Cc1c(-c2ccccc2)c(=O)on1S(=O)(=O)c1ccc(NC(=O)C(C)(C)C)cc1` [Compound 3c, N-(4-((3-methyl-5-oxo-4-phenylisoxazol-2(5H)-yl)sulfonyl)phenyl)pivalamide]: the “HNE inhibitory activity, result in words” value in data set [1] is “completely inactive”.
In the case of `Cc1cccc(C(=O)Oc2onc(C)c2-c2ccc(C#N)cc2)c1` [Compound 8b, 4-(4-Cyanophenyl)-3-methylisoxazol-5-yl 3-methylbenzoate], the melting point lay in the range of 98 to 100 °C. The same compound had an IC50 in data set [1] of 420 ± 130 nM.
For `Cc1cccc(C(=O)n2oc(=O)c3ccccc32)c1` [Compound 10c, 1-(3-Methylbenzoyl)benzo[c]isoxazol-3(1H)-one], in that order: 116 to 119 °C and 638 ± 121 nM.
As to `O=C(C1CC1)n1oc(=O)cc1-c1ccc([N+](=O)[O-])cc1` [Compound 4t, 2-(Cyclopropanecarbonyl)-3-(4-nitrophenyl)isoxazol-5(2H)-one], in data set [1], the “HNE inhibitory activity, result in words” value is “completely inactive”.
With `CCCCC(=O)n1oc(=O)c2ccccc21` [Compound 10b, 1-Pentanoylbenzo[c]isoxazol-3(1H)-one], the “HNE inhibitory activity, result in words” value in data set [1] is “inactive”.
Take `Cc1cccc(Cn2oc(=O)c(-c3ccccc3)c2C)c1` [Compound 2, 3-Methyl-2-(3-methylbenzyl)-4-phenylisoxazol-5(2H)-one]: the “HNE inhibitory activity, result in words” value in data set [1] was “completely inactive”.
In turn, `Cc1cccc(C(=O)Oc2onc(C)c2-c2ccc(NC(=O)C3CC3)cc2)c1` [Compound 8e, 4-(4-(Ciclopropanecarboxamido)phenyl)-3-methylisoxazol-5-yl3-me-thylbenzoate] had a melting point of 80 to 82 °C. The compound also showed a half-maximal inhibitory concentration (IC50) in data set [1] of 620 ± 210 nM. Moreover, the half-life in data set [2] is 5.6 h.
`Cc1cccc(C(=O)n2oc(=O)c(-c3ccc(NC(=O)C4CC4)cc3)c2C)c1` [Compound 7e, N-(4-(3-methyl-2-(3-methylbenzoyl)-5-oxo-2,5-dihydroisoxazol-4-yl)phenyl)ciclopropanecarboxamide] came in with a melting point of 120 to 123 °C. In addition, the half-inhibitory concentration (IC50) in data set [1] amounted to 50 ± 20 nM. The half-life in data set [2] was 9.6 h. On HNE, the “time for which HNE inhibition was maximal” value is “up to 60 min”.
In turn, `Cc1cccc(C(=O)n2oc(=O)c(-c3ccc(C#N)cc3)c2C)c1` [Compound 7b, 4-(3-Methyl-2-(3-methylbenzoyl)-5-oxo-2,5-dihydroisoxazol-4-yl)benzonitrile] returned a melting point of 108 to 110 °C. In data set [1], this compound returned a 50% inhibitory concentration (IC50) of 70 ± 20 nM. In addition, the “time after which HNE inhibition was reversed” value on HNE is recorded as roughly 30 min.
For `Cc1cccc(C(=O)n2oc(=O)cc2-c2ccc([N+](=O)[O-])cc2)c1` [Compound 4s, 2-(3-Methylbenzoyl)-3-(4-nitrophenyl)isoxazol-5(2H)-one], the melting point was 177 to 180 °C (dec.). In addition, the “HNE inhibitory activity, result in words” value in data set [1] is “completely inactive”.
`O=C(C1CC1)n1oc(=O)cc1-c1ccccc1` [Compound 4r, 2-(Cyclopropanecarbonyl)-3-phenylisoxazol-5(2H)-one]: in data set [1], 12700 ± 2700 nM corresponded to half-maximal inhibition (IC50).
The compound `CC(=O)Nc1ccc(-c2cc(=O)on2C(=O)c2cccc(C)c2)cc1` [Compound 4u, N-(4-(2-(3-methylbenzoyl)-5-oxo-2,5-dihydroisoxazol-3-yl)phenyl)acetamide] registered an IC50 in data set [1] of 28600 ± 3300 nM.
`Cc1c(-c2ccccc2)c(=O)on1C(=O)c1ccc(OC(=O)C(C)(C)C)cc1` [Compound 4l, 4-(3-Methyl-5-oxo-4-phenyl-2,5-dihydroisoxazole-2-carbonyl)phenyl pivalate] registered a melting point of 130 to 132 °C. In data set [1], this compound came in with an IC50 of 480 ± 130 nM.
For `Cc1c(-c2ccccc2)c(=O)on1C(=O)c1cccc(C#N)c1` [Compound 4g, 3-(3-Methyl-5-oxo-4-phenyl-2,5-dihydroisoxazole-2-carbonyl)benzonitrile], the melting point was in the range of 118 to 119 °C. For the same compound, in data set [1], the IC50 turned out to be 6300 ± 1400 nM.
As to `Cc1cccc(C(=O)n2oc(=O)c(-c3ccccc3)c2-c2ccccc2)c1` [Compound 4m, 2-(3-Methylbenzoyl)-3,4-diphenylisoxazol-5(2H)-one], the melting point lay within 160 to 163 °C. The compound further displayed an IC50 in data set [1] of 10100 ± 1300 nM.
Consider `Cc1ccc(-c2c(C)noc2OC(=O)c2cccc(C)c2)cc1` [Compound 8a, 3-Methyl-4-(p-tolyl)isoxazol-5-yl 3-methylbenzoate], for which the IC50 in data set [1] was 10000 nM and 10200 nM. Also, the half-life in data set [2] was 5.3 h.
For the compound `Cc1cccc(C(=O)n2oc(=O)cc2-c2ccccc2)c1` [Compound 4q, 2-(3-Methylbenzoyl)-3-phenylisoxazol-5(2H)-one], the IC50 in data set [1] was determined as 48700 ± 3300 nM.
In the case of `Cc1ccccc1C(=O)n1oc(=O)c(-c2ccccc2)c1C` [Compound 4d, 3-Methyl-2-(2-methylbenzoyl)-4-phenylisoxazol-5(2H)-one], the melting point is 99 to 100 °C. Further, the IC50 in data set [1] was 350 ± 36 nM.
